Reference: the NIST ThermoML archive (doi:10.1016/j.jct.2015.02.023)
Numbers after ± are expanded uncertainties.

Experiment: activity coefficient (dimensionless); of the first substance listed, at infinite dilution; xn = mol fraction of the nth substance listed
Details: 101.33 kPa, Liquid, Chromatography, x1 = 0

Row | Structure (SMILES) | activity coefficient (333.15 K) | activity coefficient (353.15 K) | activity coefficient (373.15 K) | activity coefficient (343.15 K) | activity coefficient (313.15 K) | activity coefficient (323.15 K)
1 | CO [methanol] + CCn1cc[n+](C)c1.CO[PH](=O)[O-] | 0.072 ± 0.03 | 0.078 ± 0.03 | 0.088 ± 0.03 |  |  | 
2 | CO [methanol] + CO[PH](=O)[O-].Cn1cc[n+](C)c1 |  |  |  | 0.07 ± 0.03 |  | 
3 | CC1CCCCC1 [methylcyclohexane] + CCn1cc[n+](C)c1.CO[PH](=O)[O-] | 70.8 ± 4.9 |  |  |  | 211 ± 15 | 
4 | CC1CCCCC1 [methylcyclohexane] + CO[PH](=O)[O-].Cn1cc[n+](C)c1 |  |  |  |  | 257 ± 18 | 
5 | CC1CCCC1 [methylcyclopentane] + CCn1cc[n+](C)c1.CO[PH](=O)[O-] |  |  |  |  | 76 ± 5 | 
6 | C[N+](=O)[O-] [nitromethane] + CCn1cc[n+](C)c1.CO[PH](=O)[O-] | 0.787 ± 0.051 | 0.831 ± 0.054 | 0.873 ± 0.056 |  | 0.75 ± 0.049 | 
7 | C[N+](=O)[O-] [nitromethane] + CO[PH](=O)[O-].Cn1cc[n+](C)c1 | 0.82 ± 0.05 |  |  | 0.83 ± 0.05 | 0.8 ± 0.05 | 0.81 ± 0.05
8 | CCCCCCCCC [nonane] + CCn1cc[n+](C)c1.CO[PH](=O)[O-] | 485 ± 33 |  |  |  | 617 ± 42 | 
9 | CCCCCCCCC [nonane] + CO[PH](=O)[O-].Cn1cc[n+](C)c1 |  |  |  |  | 1070 ± 74 | 1050 ± 72
10 | CCCCCCCC [octane] + CCn1cc[n+](C)c1.CO[PH](=O)[O-] |  |  |  |  | 461 ± 32 | 
11 | CCCC(C)=O [pentan-2-one] + CCn1cc[n+](C)c1.CO[PH](=O)[O-] | 6.13 ± 0.42 | 6.15 ± 0.42 | 6.18 ± 0.42 |  | 6.12 ± 0.42 | 
12 | CCCC(C)=O [pentan-2-one] + CO[PH](=O)[O-].Cn1cc[n+](C)c1 | 10.3 ± 0.7 |  |  | 10.1 ± 0.7 | 10.6 ± 0.7 | 10.5 ± 0.7
13 | CCC(=O)CC [pentan-3-one] + CCn1cc[n+](C)c1.CO[PH](=O)[O-] | 5.88 ± 0.4 | 6 ± 0.41 | 6.17 ± 0.42 |  | 5.77 ± 0.39 | 
14 | CCC(=O)CC [pentan-3-one] + CO[PH](=O)[O-].Cn1cc[n+](C)c1 | 10.1 ± 0.7 |  |  | 10 ± 0.7 | 10.2 ± 0.7 | 10.1 ± 0.7
15 | CCCO [propan-1-ol] + CCn1cc[n+](C)c1.CO[PH](=O)[O-] |  | 0.207 ± 0.029 | 0.214 ± 0.029 |  |  | 
16 | CCCO [propan-1-ol] + CO[PH](=O)[O-].Cn1cc[n+](C)c1 |  |  |  | 0.25 ± 0.03 |  | 
17 | CC(C)O [propan-2-ol] + CCn1cc[n+](C)c1.CO[PH](=O)[O-] | 0.261 ± 0.03 | 0.294 ± 0.031 | 0.314 ± 0.031 |  |  | 
18 | c1ccncc1 [pyridine] + CCn1cc[n+](C)c1.CO[PH](=O)[O-] | 1.84 ± 0.12 | 1.95 ± 0.13 | 2 ± 0.14 |  | 1.77 ± 0.12 | 
19 | c1ccncc1 [pyridine] + CO[PH](=O)[O-].Cn1cc[n+](C)c1 | 2.17 ± 0.15 |  |  | 2.19 ± 0.15 | 2.15 ± 0.15 | 2.16 ± 0.15
20 | ClC(Cl)(Cl)Cl [tetrachloromethane] + CCn1cc[n+](C)c1.CO[PH](=O)[O-] | 4.96 ± 0.34 |  |  |  | 4.38 ± 0.3 | 
21 | ClC(Cl)(Cl)Cl [tetrachloromethane] + CO[PH](=O)[O-].Cn1cc[n+](C)c1 | 7.03 ± 0.48 |  |  |  | 6.57 ± 0.45 | 6.83 ± 0.47
22 | CCCCCCCCCCCCCC [tetradecane] + CCn1cc[n+](C)c1.CO[PH](=O)[O-] | 3010 ± 210 | 2610 ± 180 | 2270 ± 160 |  | 3490 ± 240 | 
23 | CCCCCCCCCCCCCC [tetradecane] + CO[PH](=O)[O-].Cn1cc[n+](C)c1 | 2980 ± 210 |  |  | 2890 ± 200 | 3560 ± 250 | 3220 ± 220
